# Source: patent publication US9920010B2, “CXCR7 receptor modulators” (IDORSIA PHARMACEUTICALS LTD, priority 2013, dated 2018)
# Molecular target: T1, CXCR7 (Homo sapiens, UniProt P25106)
# T1 construct: host or cells: CHO-K1 (PathHunter CHO-K1 CXCR7 b-arrestin cell line, stably transfected)
# Test: PathHunter CHO-K1 CXCR7 b-arrestin recruitment assay (CXCR7 agonistic activity)
# Format: cell-based
# Settings: PathHunter CHO-K1 CXCR7 b-arrestin cell line
# How it was run: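 Stable CHO-K1 line with C-terminally ProLink-tagged CXCR7 and β-arrestin 2–EA fusion; β-arrestin recruitment restores β-gal activity, read by chemiluminescence after 1 h RT detection. Cells seeded 24 h, starved in OPTIMEM 3–4 h, exposed to compounds 90 min at 37 °C in HBSS/HEPES/BSA. Geometric-mean EC50 from repeated measurements.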
# T1 sequence (P25106 whole entry): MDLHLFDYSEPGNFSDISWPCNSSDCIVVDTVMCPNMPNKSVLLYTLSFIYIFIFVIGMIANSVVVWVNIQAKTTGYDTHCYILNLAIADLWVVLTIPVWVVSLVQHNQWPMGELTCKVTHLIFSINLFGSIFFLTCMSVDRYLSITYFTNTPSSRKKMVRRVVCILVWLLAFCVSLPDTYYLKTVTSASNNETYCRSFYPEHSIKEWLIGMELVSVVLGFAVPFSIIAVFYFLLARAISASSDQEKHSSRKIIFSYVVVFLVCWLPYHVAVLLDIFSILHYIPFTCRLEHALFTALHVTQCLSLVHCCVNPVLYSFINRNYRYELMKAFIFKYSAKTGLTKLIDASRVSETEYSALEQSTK
# T1 sequence (P32121 whole entry partner): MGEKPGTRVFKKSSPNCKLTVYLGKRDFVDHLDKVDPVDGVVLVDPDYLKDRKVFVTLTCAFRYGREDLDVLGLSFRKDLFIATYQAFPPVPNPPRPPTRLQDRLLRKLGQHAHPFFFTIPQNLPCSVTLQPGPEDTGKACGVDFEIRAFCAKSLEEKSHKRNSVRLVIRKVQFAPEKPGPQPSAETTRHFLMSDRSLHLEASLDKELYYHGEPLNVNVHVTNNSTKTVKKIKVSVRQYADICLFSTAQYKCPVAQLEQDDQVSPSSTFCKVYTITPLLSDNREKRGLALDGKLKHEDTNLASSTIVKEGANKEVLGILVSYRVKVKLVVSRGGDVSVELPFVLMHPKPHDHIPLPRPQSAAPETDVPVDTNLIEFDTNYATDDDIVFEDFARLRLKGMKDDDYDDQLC
row,EC50 [nM],SMILES
1,120,CCCCNC(=O)N1CCc2c(cccc2NCC(=O)N(CCNC)Cc2ncccc2C(F)(F)F)C1 [compound 431]
2,376,"O=C1CC(CN(Cc2ccccc2C(F)(F)F)C(=O)CNc2cccc3c2CCN(CC2CC2)C3)=CC=N1 [Example 78, 2-(2-Cyclopropylmethyl-1,2,3,4-tetrahydro-isoquinolin-5-ylamino)-N-(2-oxo-2,3-dihydro-pyridin-4-ylmethyl)-N-(2-trifluoromethyl-benzyl)-acetamide]"
3,6,"CC1Cc2c(cccc2NCC(=O)N(CCN(C)C)Cc2ccccc2C(F)(F)F)CN1CC1CC1 (racemic) [Example 212, rac-2-((2-(Cyclopropylmethyl)-3-methyl-1,2,3,4-tetrahydroisoquinolin-5-yl)amino)-N-(2-(dimethylamino)ethyl)-N-(2-(trifluoromethyl)benzyl)acetamide]"
4,60,CNCCN(Cc1ncccc1C(F)(F)F)C(=O)CNc1cccc2c1CCN(C(=O)OC(C)C)C2 [compound 424]
5,33,"C=CCOC(=O)N1CCc2c(cccc2NCC(=O)N(CCNC)Cc2ncccc2C(F)(F)F)C1 [compound 422, 5-({[(2-Methylamino-ethyl)-(3-trifluoromethyl-pyridin-2-ylmethyl)-carbamoyl]-methyl}-amino)-3,4-dihydro-1H-isoquinoline-2-carboxylic acid allyl ester]"
6,20,"CCN1CCc2c(cccc2NCC(=O)N(CCN(C)C)Cc2ccccc2Cl)C1 [compound 133, N-(2-Chloro-benzyl)-N-(2-dimethylamino-ethyl)-2-(2-ethyl-1,2,3,4-tetrahydro-isoquinolin-5-ylamino)-acetamide]"
7,23,"CN(C)CCN(Cc1ccncc1Br)C(=O)CNc1cccc2c1CCN(CC1CC1)C2 [Example 239, N-(3-Bromo-pyridin-4-ylmethyl)-2-(2-cyclopropylmethyl-1,2,3,4-tetrahydro-isoquinolin-5-ylamino)-N-(2-dimethylamino-ethyl)-acetamide]"
8,7,"CN(C)CCN(Cc1ccc(F)cc1C(F)(F)F)C(=O)CNc1cccc2c1CCN(CC1CC1)C2 [Example 54, 2-(2-Cyclopropylmethyl-1,2,3,4-tetrahydro-isoquinolin-5-ylamino)-N-(2-dimethylamino-ethyl)-N-(4-fluoro-2-trifluoromethyl-benzyl)-acetamide]"
9,29,"CCN1CCc2cccc(NCC(=O)N(CCN(C)C)Cc3ncccc3Cl)c2C1 [compound 511, N-(3-Chloro-pyridin-2-ylmethyl)-N-(2-dimethylamino-ethyl)-2-(2-ethyl-1,2,3,4-tetrahydro-isoquinolin-8-ylamino)-acetamide]"
10,137,"O=C(CNc1cccc2c1CCN(CC1CC1)C2)N(CCc1ccc(F)cc1)Cc1ccccc1 [Example 75, N-Benzyl-2-(2-cyclopropylmethyl-1,2,3,4-tetrahydro-isoquinolin-5-ylamino)-N-[2-(4-fluoro-phenyl)-ethyl]-acetamide]"
11,21,"CN(C)CCN(Cc1cccc(OC(F)(F)F)c1)C(=O)CNc1cccc2c1CN(CC1CC1)CC2 [compound 471, 2-(2-Cyclopropylmethyl-1,2,3,4-tetrahydro-isoquinolin-8-ylamino)-N-(2-dimethylamino-ethyl)-N-(3-trifluoromethoxy-benzyl)-acetamide]"
12,418,"Cc1cccc(CN(C(=O)CNc2cccc3c2CCN(CC2CC2)C3)C2CC2)c1C [Example 69, N-Cyclopropyl-2-(2-cyclopropylmethyl-1,2,3,4-tetrahydro-isoquinolin-5-ylamino)-N-(2,3-dimethyl-benzyl)-acetamide]"
13,42,"CCN1CCc2cccc(NCC(=O)N(CCN(C)C)Cc3cccc(C(F)(F)F)c3)c2C1 [compound 505, N-(2-Dimethylamino-ethyl)-2-(2-ethyl-1,2,3,4-tetrahydro-isoquinolin-8-ylamino)-N-(3-trifluoromethyl-benzyl)-acetamide]"
14,370,"COCCN1CCc2c(/C=C/C(=O)N(Cc3ccccc3)C3CCS(=O)(=O)C3)cccc2C1 (stereo not drawn) [Example 316, (E)-N-Benzyl-N-(1,1-dioxo-tetrahydro-1l6-thiophen-3-yl)-3-[2-(2-methoxy-ethyl)-1,2,3,4-tetrahydro-isoquinolin-5-yl]-acrylamide]"
15,44,"CCN1CCc2cccc(NCC(=O)N(CCN(C)C)Cc3cccc(C)n3)c2C1 [compound 526, N-(2-Dimethylamino-ethyl)-2-(2-ethyl-1,2,3,4-tetrahydro-isoquinolin-8-ylamino)-N-(6-methyl-pyridin-2-ylmethyl)-acetamide]"
16,3,"CN(CCN(Cc1ccccc1C(F)(F)F)C(=O)CNc1cccc2c1CCN(CC1CC1)C2)C1CC1 [Example 220, N-[2-(Cyclopropyl-methyl-amino)-ethyl]-2-(2-cyclopropylmethyl-1,2,3,4-tetrahydro-isoquinolin-5-ylamino)-N-(2-trifluoromethyl-benzyl)-acetamide]"

row,EC50 [nM],SMILES
1,11,"CCC(=O)N1CCc2c(cccc2NCC(=O)N(CCN(C)C)Cc2ccccc2Cl)C1 [Example 20, N-(2-Chloro-benzyl)-N-(2-dimethylamino-ethyl)-2-(2-propionyl-1,2,3,4-tetrahydro-isoquinolin-5-ylamino)-acetamide]"
2,96,CN(C)CCN(Cc1ccccc1)C(=O)CNc1cccc2c1CCN(CC(C)(C)C)C2 [compound 116]
3,24,"CN(C)CCN(CCc1ccccc1C(F)(F)F)C(=O)CNc1cccc2c1CCN(CC1CC1)C2 [Example 57, 2-(2-Cyclopropylmethyl-1,2,3,4-tetrahydro-isoquinolin-5-ylamino)-N-(2-dimethylamino-ethyl)-N-[2-(2-trifluoromethyl-phenyl)-ethyl]-acetamide]"
4,12,"CN(C)CCN(Cc1ccccc1)C(=O)CNc1cccc2c1CN(C(=O)c1ccccc1)CC2 [compound 195, 2-(2-Benzoyl-1,2,3,4-tetrahydro-isoquinolin-8-ylamino)-N-benzyl-N-(2-dimethylamino-ethyl)-acetamide]"
5,174,"CCC(=O)N1CCc2c(cccc2NCC(=O)N(CCN(C)C)Cc2cccc(OC)c2)C1 [Example 29, N-(2-Dimethylamino-ethyl)-N-(3-methoxy-benzyl)-2-(2-propionyl-1,2,3,4-tetrahydro-isoquinolin-5-ylamino)-acetamide]"
6,21,"CN(C)CCN(Cc1ccccc1OC(F)(F)F)C(=O)CNc1cccc2c1CN(CC1CC1)CC2 [compound 472, 2-(2-Cyclopropylmethyl-1,2,3,4-tetrahydro-isoquinolin-8-ylamino)-N-(2-dimethylamino-ethyl)-N-(2-trifluoromethoxy-benzyl)-acetamide]"
7,174,CCN1CCc2cccc(NCC(=O)N(CCN(C)C)Cc3ccc(F)cn3)c2C1 [compound 529]
8,4,"CC(C1CC1)N1CCc2c(cccc2NCC(=O)N(CCN(C)C)Cc2ccccc2C(F)(F)F)C1 (stereo not drawn) [Example 357, 2-[2-(1-Cyclopropyl-ethyl)-1,2,3,4-tetrahydro-isoquinolin-5-ylamino]-N-(2-dimethylamino-ethyl)-N-(2-trifluoromethyl-benzyl)-acetamide]"
9,8,"CN1CCC(N(Cc2ccccc2C(F)(F)F)C(=O)/C=C/c2cccc3c2CCN(CC2CC2)C3)CC1 [compound 152, (E)-3-(2-Cyclopropylmethyl-1,2,3,4-tetrahydro-isoquinolin-5-yl)-N-(1-methyl-piperidin-4-yl)-N-(2-trifluoromethyl-benzyl)-acrylamide]"
10,21,"CCN(CC)CCN(Cc1ccccc1)C(=O)CNc1cccc2c1CN(CC)CC2 [compound 490, N-Benzyl-N-(2-diethylamino-ethyl)-2-(2-ethyl-1,2,3,4-tetrahydro-isoquinolin-8-ylamino)-acetamide]"
11,30,"COC(=O)CN1CCc2c(cccc2NCC(=O)N(CCN(C)C)Cc2ccccc2C(F)(F)F)C1 [Example 360, [5-({[(2-Dimethylamino-ethyl)-(2-trifluoromethyl-benzyl)-carbamoyl]-methyl}-amino)-3,4-dihydro-1H-isoquinolin-2-yl]-acetic acid methyl ester]"
12,6,"O=C(CNc1cccc2c1CCN(CC1CC1)C2)N(CCN1CCCC1)Cc1ccc(F)cc1Cl [Example 50, N-(2-Chloro-4-fluoro-benzyl)-2-(2-cyclopropylmethyl-1,2,3,4-tetrahydro-isoquinolin-5-ylamino)-N-(2-pyrrolidin-1-yl-ethyl)-acetamide]"
13,17,"CN1CCCC1CCN(CCCc1ccccc1)C(=O)CNc1cccc2c1CCN(CC1CC1)C2 (racemic) [Example 52, rac-2-(2-Cyclopropylmethyl-1,2,3,4-tetrahydro-isoquinolin-5-ylamino)-N-[2-(1-methyl-pyrrolidin-2-yl)-ethyl]-N-(3-phenyl-propyl)-acetamide]"
14,37,"CC(C)CN1Cc2cccc(NCC(=O)N(CCN(C)C)Cc3ccccc3C(F)(F)F)c2CC1=O [Example 312, N-(2-Dimethylamino-ethyl)-2-(2-isobutyl-3-oxo-1,2,3,4-tetrahydro-isoquinolin-5-ylamino)-N-(2-trifluoromethyl-benzyl)-acetamide]"
15,3,"O=C(CNc1cccc2c1CCN(CC1CC1)C2)N(CCN1CCCC1)Cc1ccc(F)cc1F [Example 51, 2-(2-Cyclopropylmethyl-1,2,3,4-tetrahydro-isoquinolin-5-ylamino)-N-(2,4-difluoro-benzyl)-N-(2-pyrrolidin-1-yl-ethyl)-acetamide]"
16,15,"CCN1CCc2cccc(NCC(=O)N(CCNC)Cc3ccccc3C(F)(F)F)c2C1 [compound 444, 2-(2-Ethyl-1,2,3,4-tetrahydro-isoquinolin-8-ylamino)-N-(2-methylamino-ethyl)-N-(2-trifluoromethyl-benzyl)-acetamide]"

row,SMILES,EC50 [nM]
1,"CCN1CCc2c(cccc2OCC(=O)N(CCN(C)C)Cc2ccccc2C(F)(F)F)C1 [compound 173, N-(2-Dimethylamino-ethyl)-2-(2-ethyl-1,2,3,4-tetrahydro-isoquinolin-5-yloxy)-N-(2-trifluoromethyl-benzyl)-acetamide]",5
